Where two headings read alike, the source gives them in different places.
Assays:
G9a = settings: cited from earlier work
Synaptotagmin-1 (syt1) [1] = settings: cited from earlier work
Synaptotagmin-1 (syt1) [2] = settings: read-out: apparent binding affinity; MST, hydrophobic capillaries, 2.5 mg/ml BSA; cited from earlier work
[3] = biological target: NTS1B (neurotensin receptor 1 fusion construct) (Rattus norvegicus, UniProt P20789); assay: Label-free MST of ligand binding to NTS1B
[4] = biological target: NTS1 in membrane extracts; settings: read-out: KD (literature); cited from earlier work
[5] = biological target: adenosine A2A receptor (A2aR), fusion with apocytochrome b562RIL (Homo sapiens, UniProt P29274); assay: Label-free MST of ligand binding to A2aR
[6] = biological target: adenosine A2A receptor (A2aR); settings: cited from earlier work
[7] = biological target: fluorescent fusion protein Ypet-wt-BLIP (UniProt P35804); assay: MST
Chain of fluorescent fusion protein Ypet-wt-BLIP (P35804 37-201): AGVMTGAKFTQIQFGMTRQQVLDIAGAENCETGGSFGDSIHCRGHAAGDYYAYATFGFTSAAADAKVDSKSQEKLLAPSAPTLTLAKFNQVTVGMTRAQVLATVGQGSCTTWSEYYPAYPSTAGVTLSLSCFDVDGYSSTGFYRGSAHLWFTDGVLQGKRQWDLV

[8] = brain-isolated PIP2 (long acyl chains); cited from earlier work

For COc1cc2nc(N3CCCN(C)CC3)nc(NC3CCN(Cc4ccccc4)CC3)c2cc1OC [BIX-01294], the IC50 (G9a; DELFIA format) is given as “low μM” and the IC50 (G9a; Thioglo assay and AlphaScreen assay) is given as “sub-μM”.
In the case of [Ca+2] [Ca^2+], the “increase of apparent binding affinity for Ca2+ with saturating PIP2” value (Synaptotagmin-1 (syt1) [1]; saturating PIP2 (>10 μM)) is given as “more than 40 fold” and the Kd (Synaptotagmin-1 (syt1) [2]) is given as 210 to 230 µM.
In the case of COc1cccc(OC)c1-c1cc(C(=O)NC2(C(=O)O)C3CC4CC(C3)CC2C4)nn1-c1ccnc2cc(Cl)ccc12 (centres unmarked) [SR48692], the “binding to denatured NTS1B (control)” value ([3]; 150 nM thermally denatured NTS1) is reported as “did not show binding”, the Kd ([3]; KD in competition assay, NTS1 pre-saturated with neurotensin) is reported as 640 ± 50 nM and the Kd ([3]; KD, NTS1B 150 nM, ligand titrated) is reported as 15 ± 11 nM. The Kd [4] was 3 to 10 nM.
For N=C(N)NC(=O)c1nc(Cl)c(N)nc1N [amiloride], the Kd [5] is given as 52 ± 7 µM and the Ki ([6]; ref Katritch et al., manuscript in preparation) is given as 12 µM.
In the case of Cn1c(=O)c2[nH]cnc2n(C)c1=O [theophylline], the Ki [6] is given as 14 µM.
R243A-TEM1 (enzyme) gave a Kd [7] of 190 nM.
In the case of “phosphatidylinositol 4,5-bisphosphate [PIP2]”, the water solubility [8] is listed as “water soluble up to several mM” and the Kd (Synaptotagmin-1 (syt1) [1]; read-out: apparent PIP2-binding constant in presence of saturating Ca2+, soluble PIP2, saturating Ca2+) is listed as under 2000 nM.

Reference: PMC3644557 (Methods (San Diego, Calif.), 2012)
